Results on 2 molecules are retold here after patent US20120121535A1, “AGENT FOR PREVENTING RECURRENCE OF LEUKEMIA” (RIKEN, priority 2009, published 2012).

One assay concerns hCD34+CD38− LSCs. In words: Flow cytometric cell cycle analysis of LSCs in BM of recipients of primary transplantation of human AML. It counts as in vivo, NOD/SCID/IL2rg^null mice transplanted with human AML. From the text:
(§1) Newborn (within 2 days of birth) NOD/SCID/IL2rg^null recipient received 150 cGy of total body irradiation using a ^137Cs-source irradiator, followed by intravenous injection of AML cells within two hours. For primary transplantation, 10^3 to 5×10^4 sorted BM cells per recipient from a 7AAD^− lineage (hCD3/hCD4/hCD8) ^−hCD34^+hCD38^− AML patient were used, as described in F. Ishikawa et al., Nat. Biotechnol. 25, 1315 (2007). For secondary transplantation after administration of Ara-C (cytarabine) alone or after administration of G-CSF followed by administration of Ara-C, 2×10^2, 2×10^3, 2×10^4, or 2×10^5 sorted 7AAD^−hCD45^+hCD34^+ BM cells per recipient were used. For fluorescence-activated cell sorting, BMMNC cells from AML patients were labeled with fluorescent dye-conjugated mouse anti-hCD3, anti-hCD4, anti-hCD8, anti-hCD34 and anti-hCD38 monoclonal antibodies (BD Immunocytometry), and BMMNC cells from recipients were labeled with mouse anti-hCD45, anti-hCD34 and anti-hCD38 monoclonal antibodies (BD Immunocytometry); the cells were sorted using FACSAria (Beckton Dickinson, Calif.). Doublets were eliminated via analysis of FSC/SSC-height and FSC/SSC-width. After the sorting, the purities of hCD34^+hCD38^− cells and hCD34^+ cells exceeded 98%.
For experiments involving administration of G-CSF alone, administration of Ara-C alone, and administration of G-CSF followed by administration of Ara-C, recipients of primary transplantation of human AML were used 16 to 24 weeks after transplantation. […]
For evaluation of human AML transplantation, blood was drawn from the orbital sinus of each recipient every 3 weeks starting at week 6 after transplantation. Myelocytes were recovered from two tibiae and one femur from each analyzed recipient; MNCs (mononucleocytes) were counted manually and using an automated blood cell analyzer (Celltac α, Nihon Kohden, Japan), and the absolute number of BMMNCs derived from each recipient was estimated. The absolute number of human CD34^+ cells (derived from two tibiae and one femur) per mouse was determined by multiplying the thus-obtained total BMMNC count by 7AAD^−hCD45^+hCD34^+ BM cells (%). BrdU uptake was measured using a BrdU flow kit (BD Pharmingen, Calif.). To quantify cells in the G0 phase of the cell cycle, the cells were stained with Hoechst 33342 and Pyronin Y, and then surface-stained using standard procedures. Quantitation of cells undergoing apoptosis was performed by staining activated caspase-3 in the cells using a rabbit anti-activated caspase-3 monoclonal antibody (BD Pharmingen, Calif.). […]
Background: In flow cytometry, cells or beads pass a laser one at a time.

Assay [1] deals with CD34+CD38− LSCs and CD34+CD38+ AML non-stem cells. As to the kind of experiment: Activated caspase-3 flow cytometry of BM cells undergoing apoptosis. Also noted: species or system NOD/SCID/IL2rg^null mice transplanted with human AML. Conditions: in vivo administration, recipient BM.
Description: Myelocytes were recovered from two tibiae and one femur from each analyzed recipient; MNCs (mononucleocytes) were counted manually and using an automated blood cell analyzer (Celltac α, Nihon Kohden, Japan), and the absolute number of BMMNCs derived from each recipient was estimated. The absolute number of human CD34^+ cells (derived from two tibiae and one femur) per mouse was determined by multiplying the thus-obtained total BMMNC count by 7AAD^−hCD45^+hCD34^+ BM cells (%). BrdU uptake was measured using a BrdU flow kit (BD Pharmingen, Calif.). To quantify cells in the G0 phase of the cell cycle, the cells were stained with Hoechst 33342 and Pyronin Y, and then surface-stained using standard procedures. […]
Assay [2] has as its system AML cells in the endosteum. As to the kind of experiment: HE and TUNEL staining of bone sections. The assay is classed as in vivo, NOD/SCID/IL2rg^null mice transplanted with human AML. Conditions: bone sections of recipients. From the text:
For experiments involving administration of G-CSF alone, administration of Ara-C alone, and administration of G-CSF followed by administration of Ara-C, recipients of primary transplantation of human AML were used 16 to 24 weeks after transplantation. For each experiment for comparison of various dose groups, a pair of recipients was selected from among litter mates, with the same primary AML sample transplanted in the same amount on the same day so as to suppress variation among the litter mates and variation due to differences in transplantation level. […]
After administration of Ara-C alone or after administration of Ara-C following pre-administration of G-CSF, the BM of the recipients was evaluated in terms of 1) a flow cytometry fraction of activated caspase-3 positive LSCs undergoing apoptosis, 2) histological localization of cells undergoing apoptosis in the recipient BM as determined by TUNEL staining, 3) percentage and absolute number of remaining viable hCD34^+ AML cells, and 4) frequency and AML-causing potential of remaining LSCs in alternative measurements of the likelihood of AML recurrence via limited dilution and sequential transplantation of sorted hCD34^+ cells. […]

Assay [3] has as its system hCD34+ cells, including LSCs. In words: Percentage and absolute number of remaining viable hCD45+CD34+ cells in recipient BM. It counts as in vivo, NOD/SCID/IL2rg^null mice transplanted with human AML. The conditions noted are these: mean +/− SEM; for #CD45+CD34+/mouse (×10^6): two tibiae and one femur; for % CD45+CD34+: viable cells in BM. An excerpt: (§2) For experiments involving administration of G-CSF alone, administration of Ara-C alone, and administration of G-CSF followed by administration of Ara-C, recipients of primary transplantation of human AML were used 16 to 24 weeks after transplantation. For each experiment for comparison of various dose groups, a pair of recipients was selected from among litter mates, with the same primary AML sample transplanted in the same amount on the same day so as to suppress variation among the litter mates and variation due to differences in transplantation level. Performed were administration of recombinant human G-CSF (Wako, Japan): 300 μg/kg s.c. qd×5 days; administration of Ara-C (Biogenesis, Poole, UK): 1 g/kg i.p. qd×2 days; administration of G-CSF+Ara-C: G-CSF 300 μg/kg s.c. qd×5 days, and concurrent administration of Ara-C 1 g/kg i.p. qd×2 days on days 4 and 5 of administration. The recipients were killed 16 hours after final injection. BrdU (1.5 mg/mouse; BD Biosciences, Calif.) was injected by i.p. to recipients under a cell cycle analysis by BrdU uptake immediately after the final injection (s.c. stands for subcutaneous administration, and i.p. for intraperitoneal administration).
For evaluation of human AML transplantation, blood was drawn from the orbital sinus of each recipient every 3 weeks starting at week 6 after transplantation. Myelocytes were recovered from two tibiae and one femur from each analyzed recipient; MNCs (mononucleocytes) were counted manually and using an automated blood cell analyzer (Celltac α, Nihon Kohden, Japan), and the absolute number of BMMNCs derived from each recipient was estimated. The absolute number of human CD34^+ cells (derived from two tibiae and one femur) per mouse was determined by multiplying the thus-obtained total BMMNC count by 7AAD^−hCD45^+hCD34^+ BM cells (%). BrdU uptake was measured using a BrdU flow kit (BD Pharmingen, Calif.). To quantify cells in the G0 phase of the cell cycle, the cells were stained with Hoechst 33342 and Pyronin Y, and then surface-stained using standard procedures. Quantitation of cells undergoing apoptosis was performed by staining activated caspase-3 in the cells using a rabbit anti-activated caspase-3 monoclonal antibody (BD Pharmingen, Calif.). Surface labeling was achieved using mouse anti-human CD45, anti-CD34 and anti-CD38 monoclonal antibodies (BD Immunocytometry). Analyses were performed using FACSAria and FACSCanto II (Becton Dickinson, Calif.).
To evaluate the frequency and function of LSCs remaining after each dosing, limited dilution and secondary transplantation of living hCD34^+ BM cells, including leukemia stem cells sorted from recipients given administration of Ara-C alone or G-CSF+Ara-C, were performed. The absolute number of hCD34^+ cells was obtained from the number of mononucleocytes in two tibiae and one femur derived from each recipient, and viable hCD34^+ cell (%) was obtained by flow cytometry.
The results are shown as mean value +/− SEM; differences were examined by two-tailed t-test.

A further assay deals with LSCs. As to the kind of experiment: Limited dilution secondary transplantation of sorted hCD34+ BM cells (LSC frequency, survival of secondary recipients). It counts as in vivo, NOD/SCID/IL2rg^null mice transplanted with human AML. Conditions: secondary recipients of hCD34+ cells from treated mice.
From the text: as §1, with “After the sorting, the purities of hCD34^+hCD38^− cells and hCD34^+ cells exceeded 98%.” left out
Differences in the ratios/absolute numbers of cells (%), activated caspase-negative cells (%), and BM CD34^+ cells in the cell cycle were analyzed using two-tailed t-test (GraphPad Prism, GraphPad, San Diego, Calif.). […]

Assay [4] has as its system AML cells in the endosteal region. In words: Histological analysis of bone sections (BrdU uptake, Ki67 immunofluorescence) of recipients of human AML. The assay is classed as in vivo, NOD/SCID/IL2rg^null mice transplanted with human AML.
From the text: as §2
Paraformaldehyde-fixed, decalcified, paraffin-embedded sections were prepared from femurs of the recipients primarily transplanted with AML. […]

The mark [5] stands for this setting: post-Ara-C, intraperitoneal, n=15.
Setting [6] is: after administration of G-CSF in vivo, all cases examined.

For `Nc1ccn([C@@H]2O[C@H](CO)[C@@H](O)[C@@H]2O)c(=O)n1` [Ara-C, cytarabine], the “% G0/G1 of CD34+CD38− AML cells” value with hCD34+CD38− LSCs (setting [5]) is 91.7+/−2.3%. The “% S of CD34+CD38− AML cells” value in the assay on hCD34+CD38− LSCs (setting [5]) is on record as 0.1+/−0.1%. Moreover, the “Apoptosis of CD34+CD38+ AML non-stem cells (activated caspase-3)” value in assay [1] was “underwent apoptosis”. Further, in assay [1], the “Apoptosis of CD34+CD38− LSCs (activated caspase-3)” value is recorded as “the majority of CD34^+CD38^− LSCs did not”. Further, in assay [2], the “Cell death in the endosteum (TUNEL and HE staining)” value was “TUNEL-negative AML cells remaining in the endosteum”. In addition, the “#CD45+CD34+/mouse (×10^6)” value in assay [3] (Case ID 1) is on record as 1.4 +/− 0.3 ×10^6; in assay [3] (Case ID 2) it was 4.9 +/− 0.7 ×10^6; in assay [3] (Case ID 3), 2.3 +/− 0.1 ×10^6; in assay [3] (Case ID 4), 3.6 +/− 0.8 ×10^6; in assay [3] (Case ID 5), 2.1 +/− 0.2 ×10^6; in assay [3] (Case ID 6), 5.3 +/− 1.4 ×10^6. The “#CD45+CD34+/mouse (×10^6)” value in assay [3] (Case ID 7) was 0.7 +/− 0.1 ×10^6. Also, the “% CD45+CD34+” value is reported as 29.7 +/− 1.6% in assay [3] (Case ID 1); 84.9 +/− 2.5% in assay [3] (Case ID 2); 80.2 +/− 2.3% in assay [3] (Case ID 3); 68.0 +/− 2.8% in assay [3] (Case ID 4); 61.5 +/− 7.5% in assay [3] (Case ID 5); 49.0 +/− 9.2% in assay [3] (Case ID 6). Besides, in assay [3] (Case ID 7), the “% CD45+CD34+” value is listed as 16.5 +/− 1.7%. Also, the “Secondary mouse recipients surviving beyond 19 weeks after transplantation” value in the assay with LSCs is “None”.

B1: G-CSF: recombinant human G-CSF (Wako, Japan), granulocyte colony stimulation factor (protein)
chain: TPLGPASSLPQSFLLKCLEQVRKIQGDGAALQEKLVSECATYKLCHPEELVLLGHSLGIPWAPLSSCPSQALQLAGCLSQLHSGLFLYQGLLQALEGISPELGPTLDTLQLDVADFATTIWQQMEELGMAPALQPTQGAMPAFASAFQRRAGGVLVASHLQSFLEVSYRVLRHLAQP
B1: in the assay with hCD34+CD38− LSCs (setting [6]), the “LSCs in the G0 phase fraction” value is reported as “decreased significantly”; the “LSCs in the S phase and G2/M phase” value is on record as “increased”. Moreover, the “Expression of Ki67 in AML cells in BM center and endosteal region” value in assay [4] (after 5 days of administration of G-CSF) is recorded as “expression of Ki67 was induced”. Further, the “BrdU uptake of AML cells in the endosteal region” value in assay [4] (after administration of G-CSF) is listed as “increase in BrdU uptake”.
